Our source for the IC50 values is US10981926B2 (Janssen Pharmaceutica NV, priority 2016, dated 2021).

Where two headings read alike, the source gives them in different places.

For assay [1], the target named is AR-FL and AR-V7 in 22RV1 cells. As to the kind of experiment: 22RV1 AR-FL and AR-V7 Transcriptional Reporter Assay. Format: cell-based. As to the method:
(§1) 22RV1 were obtained from ATCC and cultured in RPMI 1640 supplemented with 10% FBS. Cells were seeded at a density of 15,000 cells/well into Greiner 384-well, white, optical-bottom plates in RPMI 1640 phenol red-free medium with 1% charcoal stripped FBS and incubated for 2 days at 37° C. The cells were treated with a compound or Formula (I) in 12-point dose-response, both in the presence and absence of 0.1 nM R1881 for 18-24 hrs. At the end of assay, Steady-Glo reagent (Promega) was added to each well according to the manufacturer's instructions, placed on a shaker at 300 rpm for 10 min, and luminescence recorded using an EnVision plate reader (Perkin Elmer). The data was exported to GraphPad Prism and analyzed using the Four Parameter equation to obtain IC50 values for each compound. Each compound was tested in at least three independent experiments.
On the technique in general: In a reporter assay the amount or activity of a reporter protein is the signal.

In another assay the test system is 22RV1 cells. As to the kind of experiment: 22RV1 Proliferation Assay. Format: cell-based. The note with it: Homo sapiens, 120 h. The protocol:
as §1, with “of 4,500” for “of 15,000”, “compound of” for “compound or”, “12-point dose-response” for “12-point dose-response,”, “for 5 days. To determine cell viability, CellTiter-Glo” for “for 18-24 hrs. At the end of assay, Steady-Glo”

The IC50 is the midpoint of a concentration-inhibition curve. On to `N#Cc1ncc(N2C(=O)C3(CCC3)N(c3ccc(OC4CCNCC4)nc3)C2=S)cc1C(F)(F)F` [Cpd 43, 5-[5-oxo-8-[6-(4-piperidyloxy)-3-pyridyl]-7-thioxo-6,8-diazaspiro[3.4]octan-6-yl]-3-(trifluoromethyl)pyridine-2-carbonitrile], for which the IC50 in assay [1] (22RV1, in the absence of 0.1 nM R1881, read-out: IC50, agonist mode) amounted to 121 µM; in assay [1] (22RV1, in the presence of 0.1 nM R1881, read-out: IC50, antagonist mode), 0.348 µM; with 22RV1 cells (22RV1, in the absence of 0.1 nM R1881, 5 days, read-out: IC50, agonist mode), 492 µM; in the assay on 22RV1 cells (22RV1, in the presence of 0.1 nM R1881, 5 days, read-out: IC50, antagonist mode), 260 µM.
